Article PMC10976095 (Vaccines, 2024)
Where a SMILES comes first, the peptide text is derived from it.

Assays:
Experiment in all cases: biochemical
Assay type in all cases: binding
HLA-B*15:01 = HLA-B*15:01 (Homo sapiens, UniProt P01889, A329T/A93T/A95T/C349S/D201E/D98Y/E187L/E204Q/E69M/E70A/K202T/N87E/Q94N/R155S/R180W/S121R/S35A/S48A/V306I/V36M/Y140S/Y91S)
HLA-A*30:01 = HLA-A*30:01 (Homo sapiens, UniProt P04439, D140H/D185E/E176W/F33S/G80R/H175R/K168Q/R138E/R41S)
HLA-B*27:05 = HLA-B*27:05 (Homo sapiens, UniProt P01889, D138H/D201E/E176V/E204Q/G107R/H137Y/K202T/N104T/N87E/Q56L/Q94K/R106L/R155S/R180L/S101D/S121N/S48T/Y140D/Y33H/Y91C)
HLA-B*07:02 = HLA-B*07:02 (Homo sapiens, UniProt P01889)
HLA-B*08:01 = HLA-B*08:01 (Homo sapiens, UniProt P01889, A93T/A95T/D138N/E176V/E187T/K202T/Q94N/R180D/S35A/V36M/Y33D/Y91F)
HLA-A*32:01 = HLA-A*32:01 (Homo sapiens, UniProt P04439, A270S/D101S/D185E/E176V/E277Q/F133L/G103R/G107R/G231S/H175R/I121M/I218V/I322F/K168Q/L105A/L300P/L318F/M331R/P208A/P217A/Q94H/R106L/R138Q/S129P/T104I/T323A/T345S/V100E/V321M/V358M)
HLA-A*30:02 = HLA-A*30:02 (Homo sapiens, UniProt P04439, D101N/D140H/D185E/E176R/F33S/G80R/H175R/K168Q/Q94H/R138E/R41S/V100E)
HLA-A*03:01 = HLA-A*03:01 (Homo sapiens, UniProt P04439)
HLA-A*11:01 = HLA-A*11:01 (Homo sapiens, UniProt P04439, A114D/D185E/E176A/F33Y/L180Q/S129P/T187R)
HLA-A*68:01 = HLA-A*68:01 (Homo sapiens, UniProt P04439, A269V/D185E/E176V/E277Q/E87N/F33Y/G231S/I121M/I166T/I218V/L180W/L300P/L318F/N151K/P208A/P217A/Q86R/R169H/T345S)
HLA-A*31:01 = HLA-A*31:01 (Homo sapiens, UniProt P04439, A270S/D185E/E176V/E277Q/F33T/G231S/G80R/H175R/I121M/I218V/I322F/K168Q/L300P/L318F/M331R/P217A/Q94H/R138Q/T323A/T345S/T97I/V358M)
HLA-A*26:01 = HLA-A*26:01 (Homo sapiens, UniProt P04439, A114D/A173T/A270S/D101N/D185E/E277Q/E87N/F33Y/G231S/I121R/I218V/K168Q/L180W/L300P/L318F/P208A/P217A/Q86R/Q94H/R138Q/S129P/T187R/T323A/T345S/V100A/V358M)
HLA-A*68:02 = HLA-A*68:02 (Homo sapiens, UniProt P04439, A269V/D140Y/D185E/E176V/E277Q/E87N/F33Y/G231S/I121R/I166T/I218V/L180W/L300P/L318F/N151K/P208A/P217A/Q86R/R138H/R169H/S129P/T345S/V36M)

Work on `CC[C@H](C)[C@H](NC(=O)[C@H](CC(C)C)NC(=O)[C@H](CC(C)C)NC(=O)CNC(=O)[C@H](CO)NC(=O)[C@H](Cc1ccccc1)NC(=O)[C@H](CCCNC(=N)N)NC(=O)[C@@H](NC(=O)[C@@H](N)CCC(N)=O)[C@@H](C)O)C(=O)N[C@H](C(=O)O)C(C)C` (H-QTRFSGLLIV-OH) yielded an IC50 (HLA-B*15:01) of 4680 nM, an IC50 (HLA-A*30:01) of 421 nM and an IC50 (HLA-B*27:05) of 533 nM.
Work on `CC(C)C[C@H](NC(=O)[C@H](CC(N)=O)NC(=O)[C@H](CC(C)C)NC(=O)[C@@H](NC(=O)[C@H](CCCNC(=N)N)NC(=O)[C@H](C)NC(=O)[C@H](Cc1ccccc1)NC(=O)[C@@H]1CCCN1C(=O)[C@H](C)N)C(C)C)C(=O)O` [AL9] (H-APFARVLNL-OH) yielded an IC50 (HLA-B*07:02) of 0.21 nM and an IC50 (HLA-B*08:01) of 67 nM.
`CC(C)[C@H](NC(=O)[C@H](CCC(=O)O)NC(=O)[C@H](CC(N)=O)NC(=O)[C@H](CCCCN)NC(=O)[C@@H](NC(=O)[C@@H](N)CCCCN)C(C)C)C(=O)N[C@@H](C)C(=O)N[C@@H](CO)C(=O)N[C@@H](Cc1ccccc1)C(=O)O` [KF9] (H-KVKNEVASF-OH) showed an IC50 (HLA-B*15:01) of 5.6 nM, an IC50 (HLA-A*32:01) of 2.9 nM and an IC50 (HLA-A*30:02) of 158 nM.
For `CC[C@H](C)[C@H](NC(=O)[C@H](CC(C)C)NC(=O)[C@@H](N)CC(C)C)C(=O)N[C@H](C(=O)N[C@@H](CCCCN)C(=O)N[C@H](C(=O)N[C@H](C(=O)N[C@@H](CC(C)C)C(=O)O)C(C)C)[C@@H](C)O)C(C)C` [reference compound] (H-LLIVKTVL-OH), the IC50 (HLA-B*08:01) was 6.1 nM.
Work on `CC(C)C[C@H](NC(=O)[C@H](CO)NC(=O)[C@H](CS)NC(=O)[C@H](Cc1ccccc1)NC(=O)[C@H](CO)NC(=O)[C@@H](N)CC(C)C)C(=O)N[C@@H](Cc1ccccc1)C(=O)N[C@@H](CC(C)C)C(=O)N1CCC[C@H]1C(=O)N[C@@H](CCCCN)C(=O)O` (H-LSFCSLFLPK-OH) yielded an IC50 (HLA-A*03:01) of 4.3 nM, an IC50 (HLA-A*11:01) of 0.68 nM and an IC50 (HLA-A*68:01) of 1 nM. For the same molecule, the IC50 (HLA-A*30:01) was 238 nM and the IC50 (HLA-A*31:01) was 686 nM.
With `CC(C)C[C@H](NC(=O)[C@H](C)NC(=O)[C@H](CCC(N)=O)NC(=O)[C@H](CCCCN)NC(=O)[C@H](Cc1ccccc1)NC(=O)[C@H](CO)NC(=O)[C@H](C)NC(=O)[C@@H](NC(=O)[C@@H](N)CCC(=O)O)C(C)C)C(=O)O` [EVASFKQAL] (H-EVASFKQAL-OH) the IC50 (HLA-B*07:02) was 250 nM, the IC50 (HLA-A*26:01) was 86 nM and the IC50 (HLA-A*68:02) was 2.7 nM.
